Laboratory results as given in article PMC6891286, “Towards the Development of an In vivo Chemical Probe for Cyclin G Associated Kinase (GAK)” (Molecules, 2019).
Read-outs that look alike come from different tables or passages of the source.

How the values were obtained:
AAK1 = AAK1 (Homo sapiens, UniProt Q2M2I8); test: NAK family TR-FRET binding displacement assay; settings: NAK family FRET screening
STK16 = STK16 (Homo sapiens, UniProt O75716); test: NAK family TR-FRET binding displacement assay
Kinetic Solubility = assay type: physicochemical; settings: PBS pH7.4 (100 µM)
GAK [1] = molecular target: T1, GAK (Homo sapiens, UniProt O14976); test: TR-FRET ligand-binding displacement assay
T1 sequence (O14976 1-1311): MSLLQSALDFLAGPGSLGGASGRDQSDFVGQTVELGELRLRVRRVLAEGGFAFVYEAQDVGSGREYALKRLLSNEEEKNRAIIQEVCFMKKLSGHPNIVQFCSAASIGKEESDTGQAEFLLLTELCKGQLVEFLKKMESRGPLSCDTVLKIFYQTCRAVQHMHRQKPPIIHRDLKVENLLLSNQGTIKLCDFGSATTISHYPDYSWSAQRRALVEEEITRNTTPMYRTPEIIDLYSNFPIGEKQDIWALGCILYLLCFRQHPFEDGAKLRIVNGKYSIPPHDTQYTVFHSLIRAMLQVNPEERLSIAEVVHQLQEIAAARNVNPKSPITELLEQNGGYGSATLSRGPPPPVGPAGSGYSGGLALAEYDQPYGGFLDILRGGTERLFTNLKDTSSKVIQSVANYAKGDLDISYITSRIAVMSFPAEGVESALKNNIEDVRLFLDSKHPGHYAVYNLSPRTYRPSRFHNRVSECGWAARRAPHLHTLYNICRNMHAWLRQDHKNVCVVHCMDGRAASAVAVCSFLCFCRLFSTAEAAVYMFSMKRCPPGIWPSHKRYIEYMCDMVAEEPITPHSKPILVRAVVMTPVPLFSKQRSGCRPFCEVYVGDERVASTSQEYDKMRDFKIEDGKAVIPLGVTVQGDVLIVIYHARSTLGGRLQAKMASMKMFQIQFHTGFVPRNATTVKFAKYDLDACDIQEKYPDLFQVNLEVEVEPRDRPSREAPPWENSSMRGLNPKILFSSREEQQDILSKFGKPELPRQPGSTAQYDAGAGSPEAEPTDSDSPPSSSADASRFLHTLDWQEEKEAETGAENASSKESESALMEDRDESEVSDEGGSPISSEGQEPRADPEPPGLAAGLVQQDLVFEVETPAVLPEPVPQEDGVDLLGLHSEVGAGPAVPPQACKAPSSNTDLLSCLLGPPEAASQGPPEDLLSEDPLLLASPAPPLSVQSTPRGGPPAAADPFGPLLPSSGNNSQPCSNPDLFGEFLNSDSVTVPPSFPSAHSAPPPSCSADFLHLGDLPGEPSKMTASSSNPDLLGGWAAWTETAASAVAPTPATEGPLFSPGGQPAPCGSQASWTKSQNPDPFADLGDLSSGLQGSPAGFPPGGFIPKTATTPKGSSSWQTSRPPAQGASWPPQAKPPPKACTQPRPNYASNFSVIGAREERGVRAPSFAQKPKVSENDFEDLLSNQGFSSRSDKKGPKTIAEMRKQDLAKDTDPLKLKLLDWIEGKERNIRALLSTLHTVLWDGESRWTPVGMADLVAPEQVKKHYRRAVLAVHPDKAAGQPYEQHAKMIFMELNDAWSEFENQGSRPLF

[2] = mouse liver microsome metabolic stability; settings: for T1/2 Ratio: normalization with respect to internal control (propranolol); for half-life / CLint scaled: mouse
Protocol: SGC-GAK-1 (1) was incubated with MLMs in the presence or absence of added NADPH, and the compound was quantified at various time points over an hour.
The metabolic stability of the 4-anilinoquinolines (8–13) were evaluated in MLMs (Table 1). Half-lives for metabolic clearance were normalized to propranolol in each experimental run to control for variations in the MLM preparations.

BMP2K = BMP2K (Homo sapiens, UniProt Q9NSY1); test: NAK family TR-FRET binding displacement assay
GAK [3] = molecular target: T1, GAK; test: live cell NanoBRET target engagement assay; assay type: cell-based; settings: for IC50 values in cells: live cell NanoBRET assay; for IC50: nanoBRET, mean average, n = 2
[4] = NAK family FRET screening, read-out: Binding displacement assay STK16 Ki
[5] = pH 7.4, aqueous buffer, kinetic from dmso stock, read-out: Kinetic Solubility µM
[6] = pH 7.4, aqueous buffer, kinetic from dmso stock, read-out: Kinetic Solubility µg/mL
[7] = TR-FRET assay, read-out: Biochemical GAK Ki
[8] = mouse liver microsomes, T1/2 (min), mouse liver microsomes with NADPH, mean average, n = 2
[9] = NAK family FRET screening, read-out: Binding displacement assay GAK Ki

Sequence of STK16 (O75716 whole entry): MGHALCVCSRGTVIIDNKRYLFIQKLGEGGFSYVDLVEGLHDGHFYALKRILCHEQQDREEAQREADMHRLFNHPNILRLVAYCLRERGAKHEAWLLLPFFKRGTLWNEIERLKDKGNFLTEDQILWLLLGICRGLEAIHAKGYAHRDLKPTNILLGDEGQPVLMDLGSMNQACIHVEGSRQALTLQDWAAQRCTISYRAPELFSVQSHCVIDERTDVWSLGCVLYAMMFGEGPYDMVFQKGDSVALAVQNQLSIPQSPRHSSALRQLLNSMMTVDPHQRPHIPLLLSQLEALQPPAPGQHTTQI
Sequence of AAK1 (Q2M2I8 whole entry): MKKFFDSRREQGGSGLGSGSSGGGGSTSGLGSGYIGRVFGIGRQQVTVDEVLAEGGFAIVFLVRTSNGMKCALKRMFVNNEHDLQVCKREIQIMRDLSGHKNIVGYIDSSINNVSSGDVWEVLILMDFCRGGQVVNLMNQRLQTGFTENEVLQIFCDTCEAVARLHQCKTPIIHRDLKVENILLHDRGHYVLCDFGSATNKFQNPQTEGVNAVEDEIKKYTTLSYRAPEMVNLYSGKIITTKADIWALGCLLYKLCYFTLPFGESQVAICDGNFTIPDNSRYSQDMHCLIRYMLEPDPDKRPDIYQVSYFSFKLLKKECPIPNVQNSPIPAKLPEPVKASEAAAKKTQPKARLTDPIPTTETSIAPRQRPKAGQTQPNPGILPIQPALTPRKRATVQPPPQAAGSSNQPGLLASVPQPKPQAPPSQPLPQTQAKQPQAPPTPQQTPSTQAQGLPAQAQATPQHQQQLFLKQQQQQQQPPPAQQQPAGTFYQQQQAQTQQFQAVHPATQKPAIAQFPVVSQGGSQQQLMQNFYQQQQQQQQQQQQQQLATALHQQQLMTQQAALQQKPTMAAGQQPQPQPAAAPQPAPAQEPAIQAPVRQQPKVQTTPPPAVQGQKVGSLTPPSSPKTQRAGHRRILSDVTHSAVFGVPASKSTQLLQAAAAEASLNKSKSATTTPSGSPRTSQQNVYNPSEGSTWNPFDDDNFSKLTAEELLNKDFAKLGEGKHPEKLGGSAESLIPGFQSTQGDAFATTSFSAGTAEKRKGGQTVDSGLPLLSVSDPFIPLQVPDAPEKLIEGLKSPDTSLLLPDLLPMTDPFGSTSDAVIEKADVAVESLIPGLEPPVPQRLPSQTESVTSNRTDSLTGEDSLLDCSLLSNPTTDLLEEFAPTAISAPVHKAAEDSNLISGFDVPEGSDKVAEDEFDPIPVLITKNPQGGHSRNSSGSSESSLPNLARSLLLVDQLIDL
Sequence of BMP2K (Q9NSY1 whole entry): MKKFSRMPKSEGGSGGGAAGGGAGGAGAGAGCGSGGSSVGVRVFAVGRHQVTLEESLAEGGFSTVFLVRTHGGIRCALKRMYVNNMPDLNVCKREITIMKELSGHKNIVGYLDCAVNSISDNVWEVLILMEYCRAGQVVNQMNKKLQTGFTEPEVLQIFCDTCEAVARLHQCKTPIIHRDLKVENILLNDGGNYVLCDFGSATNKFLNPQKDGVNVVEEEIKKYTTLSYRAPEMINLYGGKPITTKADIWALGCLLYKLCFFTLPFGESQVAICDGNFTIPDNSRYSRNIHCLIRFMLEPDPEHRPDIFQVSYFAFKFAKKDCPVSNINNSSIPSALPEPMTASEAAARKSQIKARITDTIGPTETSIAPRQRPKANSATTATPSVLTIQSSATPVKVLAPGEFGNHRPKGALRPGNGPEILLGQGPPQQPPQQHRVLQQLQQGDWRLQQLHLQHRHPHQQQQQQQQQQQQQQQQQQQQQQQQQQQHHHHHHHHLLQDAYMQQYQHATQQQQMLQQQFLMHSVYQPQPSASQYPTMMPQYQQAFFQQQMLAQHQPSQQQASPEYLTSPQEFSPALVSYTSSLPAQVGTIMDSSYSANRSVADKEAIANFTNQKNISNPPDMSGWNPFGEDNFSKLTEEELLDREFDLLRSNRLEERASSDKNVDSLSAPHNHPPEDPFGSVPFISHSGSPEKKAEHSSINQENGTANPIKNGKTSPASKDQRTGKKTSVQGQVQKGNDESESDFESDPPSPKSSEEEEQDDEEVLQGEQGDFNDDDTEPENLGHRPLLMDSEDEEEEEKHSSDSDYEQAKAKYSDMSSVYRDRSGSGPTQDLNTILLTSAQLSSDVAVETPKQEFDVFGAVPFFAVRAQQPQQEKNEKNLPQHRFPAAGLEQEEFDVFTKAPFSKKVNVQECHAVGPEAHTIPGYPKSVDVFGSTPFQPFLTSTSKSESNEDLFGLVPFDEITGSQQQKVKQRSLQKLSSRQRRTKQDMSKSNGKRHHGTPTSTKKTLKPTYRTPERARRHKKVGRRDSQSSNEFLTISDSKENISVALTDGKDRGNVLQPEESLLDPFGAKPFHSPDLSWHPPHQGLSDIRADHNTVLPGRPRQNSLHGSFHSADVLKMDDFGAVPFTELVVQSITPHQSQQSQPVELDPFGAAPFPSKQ

Compound | Ki (AAK1) | Ki (STK16; [4]) | solubility kinetic (Kinetic Solubility; [5]) | solubility kinetic (Kinetic Solubility; [6]) | Ki (GAK [1]; [7]) | T1/2 Ratio ([2]; mouse liver microsomes) | half-life [2, 8] | Ki (BMP2K) | IC50 values in cells (GAK [3]) | IC50 (GAK [3]) | other results
N-(1H-Indazol-4-yl)-6-(trifluoromethyl)quinolin-4-amine [Compound 33] | 4.6 µM | 11 µM |  |  | 0.72 µM | 0.90 |  |  |  | > 5 µM | Kinetic Solubility µg/mL (Kinetic Solubility): 8.2 µg/mL; solubility kinetic (Kinetic Solubility; read-out: Kinetic Solubility µM): 24.2 µM; T1/2 ([2]; mouse liver microsomes with NADPH, mean average, n = 2): 5.9 min; Ki (BMP2K; NAK family FRET screening, read-out: Binding displacement assay BMP2K Ki): 16 µM
Brc1ccc2nccc(Nc3ccc4[nH]ncc4c3)c2c1 [Compound 37, 6-Bromo-N-(1H-indazol-5-yl)quinolin-4-amine] | 0.52 µM | 5.7 µM | 12.3 µM | 4.2 µg/mL | 0.047 µM | 0.92 | 7.5 min | 0.66 µM |  | > 5 µM | 
Brc1ccc2nccc(Nc3cccc4ncoc34)c2c1 [Compound 23, N-(6-Bromoquinolin-4-yl)benzo[d]oxazol-7-amine] | > 100 µM | > 100 µM | 25.9 µM | 8.8 µg/mL |  | 0.21 | 1.7 min | > 100 µM | submicromolar | 0.34 µM | Ki (GAK [1]; [9]): 0.011 µM
Brc1ccc2nccc(Nc3cccc4ncsc34)c2c1 [Compound 24, N-(6-Bromoquinolin-4-yl)benzo[d]thiazol-7-amine] | 2.6 µM |  | 8.6 µM | 3.1 µg/mL |  | 0.68 | 5.3 min | 7.9 µM | submicromolar | 0.22 µM | Ki (STK16): 7.8 µM; Ki (GAK [1]; [9]): 0.0041 µM
Brc1ccc2nccc(Nc3cccc4[nH]ncc34)c2c1 [Compound 32, 6-Bromo-N-(1H-indazol-4-yl)quinolin-4-amine] | 4.6 µM | 19 µM | 5.1 µM | 1.7 µg/mL | 0.014 µM | 0.32 | 2.5 min | 7.4 µM | submicromolar | 0.76 µM | 
Brc1ccc2nccc(Nc3cccc4oncc34)c2c1 [Compound 22, N-(6-Bromoquinolin-4-yl)benzo[d]isoxazol-4-amine] | 4.6 µM |  | 3.6 µM | 1.2 µg/mL | 0.019 µM | 0.17 | 1.4 min | 15 µM |  | > 5 µM | Ki (STK16): 15 µM
Cn1ncc2c(Nc3ccnc4ccc(Br)cc34)cccc21 [Compound 31, 6-Bromo-N-(1-methyl-1H-indazol-4-yl)quinolin-4-amine] | 13 µM | 28 µM |  |  |  | 0.10 | 0.8 min | 16 µM |  | > 5 µM | Ki (GAK [1]; [9]): 3.6 µM

Second part, led by results:

Ki (AAK1) | Ki (STK16; [4]) | solubility kinetic (Kinetic Solubility; [5]) | solubility kinetic (Kinetic Solubility; [6]) | Ki (GAK [1]; [7]) | T1/2 Ratio ([2]; mouse liver microsomes) | half-life [2, 8] | Ki (BMP2K) | IC50 values in cells (GAK [3]) | IC50 (GAK [3]) | Compound | other results
2 µM | 22 µM | 1.7 µM | 0.6 µg/mL | 0.0053 µM | 0.20 | 1.6 min | 4.3 µM | submicromolar | 0.4 µM | Brc1ccc2nccc(Nc3cccc4nsnc34)c2c1 [Compound 29, N-(6-Bromoquinolin-4-yl)benzo[c][1,2,5]thiadiazol-4-amine] | 
4.6 µM | 7.6 µM | 24.9 µM | 8.5 µg/mL | 0.037 µM | 0.64 | 5.2 min | 12 µM |  | 1.4 µM | Brc1ccc2nccc(Nc3cccc4cnoc34)c2c1 [Compound 21, N-(6-Bromoquinolin-4-yl)benzo[d]isoxazol-7-amine] | 
9.7 µM | 20 µM | 8.8 µM | 3.2 µg/mL | 0.0014 µM | 0.27 | 1.8 min | 16 µM |  | 0.12 µM | Fc1ccc2c(c1Nc1ccnc3ccc(Br)cc13)OCO2 [Compound 14, 6-Bromo-N-(5-fluorobenzo[d][1,3]dioxol-4-yl)quinolin-4-amine] | T1/2 Ratio (+) ABT ([2]; mouse liver microsomes, (+) ABT, normalized to propranolol): 0.18; T1/2 Ratio (−) ABT ([2]; mouse liver microsomes, (−) ABT, normalized to propranolol): 0.05; CLint scaled ([2]; mouse liver microsomes, Clint (mL/min/kg) (+) ABT, mouse liver microsomes, (+) ABT): 137 L/h/kg; CLint scaled ([2]; mouse liver microsomes, Clint (mL/min/kg) (−) ABT, (−) ABT): 453 L/h/kg; half-life ([2]; mouse liver microsomes, T1/2 (min) (+) ABT, mouse liver microsomes, (+) ABT, mean average, n = 2): 2.5 min; half-life ([2]; mouse liver microsomes, T1/2 (min) (−) ABT, (−) ABT, mean average, n = 2): 0.74 min
> 100 µM | > 100 µM |  |  | 0.46 µM | 0.24 | 2 min | > 100 µM |  | > 5 µM | FC1(F)Oc2cccc(Nc3ccnc4ccc(Br)cc34)c2O1 [Compound 16, 6-Bromo-N-(2,2-difluorobenzo[d][1,3]dioxol-4-yl)quinolin-4-amine] | 
> 100 µM | > 100 µM |  |  | 0.023 µM | 0.50 | 4.1 min | > 100 µM |  | 3.3 µM | Brc1ccc2nccc(Nc3cccc4sccc34)c2c1 [Compound 26, N-(Benzo[b]thiophen-4-yl)-6-bromoquinolin-4-amine] | 
